Experimental data taken from PMC7146755, “Structure-Guided Design and In-Cell Target Profiling of a Cell-Active Target Engagement Probe for PARP Inhibitors” (ACS Chemical Biology, 2020).

Legend:
[1] = biological target: T1, GST-tagged PARP6 (recombinant) (Homo sapiens, UniProt Q2NL67); test: competition of PARPYnD photoaffinity labeling, in-gel fluorescence and immunoblot; assay type: biochemical; conditions: recombinant GST-PARP6 spiked into MDA-MB-468 lysate; […] nm UV
T1 construct: recombinant GST fusion with HRV3C site in the linker, 98 kDa; intact PARP6 71 kDa after cleavage
T1 sequence (Q2NL67 whole entry, the tested form may be a part): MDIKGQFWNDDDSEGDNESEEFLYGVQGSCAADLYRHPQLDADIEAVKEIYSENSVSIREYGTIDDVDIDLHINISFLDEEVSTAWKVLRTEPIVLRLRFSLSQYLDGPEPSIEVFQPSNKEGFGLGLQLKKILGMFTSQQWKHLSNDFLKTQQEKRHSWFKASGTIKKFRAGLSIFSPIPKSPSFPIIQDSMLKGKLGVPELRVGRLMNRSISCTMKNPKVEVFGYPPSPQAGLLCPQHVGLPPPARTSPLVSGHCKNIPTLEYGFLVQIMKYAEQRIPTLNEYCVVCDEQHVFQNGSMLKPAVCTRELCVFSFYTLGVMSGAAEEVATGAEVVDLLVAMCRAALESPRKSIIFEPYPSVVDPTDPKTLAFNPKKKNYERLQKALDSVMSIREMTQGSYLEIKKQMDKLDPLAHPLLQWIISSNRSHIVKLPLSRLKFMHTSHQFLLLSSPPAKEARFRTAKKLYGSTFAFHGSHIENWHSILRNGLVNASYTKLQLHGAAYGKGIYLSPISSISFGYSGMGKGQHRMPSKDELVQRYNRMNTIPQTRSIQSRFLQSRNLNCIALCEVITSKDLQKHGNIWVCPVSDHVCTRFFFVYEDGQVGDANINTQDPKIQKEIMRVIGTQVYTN

PARP2 (recombinant) = biological target: T2, PARP2 (recombinant) (Homo sapiens, UniProt Q9UGN5); test: fluorescence polarization competition binding
T2 construct: recombinant
T2 sequence (Q9UGN5 whole entry): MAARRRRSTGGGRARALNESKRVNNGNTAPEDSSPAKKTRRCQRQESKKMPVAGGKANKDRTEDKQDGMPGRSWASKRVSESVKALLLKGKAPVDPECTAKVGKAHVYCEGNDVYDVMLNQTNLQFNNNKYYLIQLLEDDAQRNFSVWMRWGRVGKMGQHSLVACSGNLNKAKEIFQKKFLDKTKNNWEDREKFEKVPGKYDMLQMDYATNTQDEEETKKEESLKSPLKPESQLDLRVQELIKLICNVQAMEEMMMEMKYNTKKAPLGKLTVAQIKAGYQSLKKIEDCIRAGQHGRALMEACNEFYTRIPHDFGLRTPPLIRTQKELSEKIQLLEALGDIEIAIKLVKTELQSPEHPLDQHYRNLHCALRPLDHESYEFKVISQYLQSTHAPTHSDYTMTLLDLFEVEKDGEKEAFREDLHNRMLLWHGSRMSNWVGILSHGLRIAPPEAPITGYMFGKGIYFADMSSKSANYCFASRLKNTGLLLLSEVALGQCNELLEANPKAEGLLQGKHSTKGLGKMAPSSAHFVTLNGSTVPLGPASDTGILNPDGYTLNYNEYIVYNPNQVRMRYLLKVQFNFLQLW

PARP1 (recombinant) = biological target: T3, PARP1 (recombinant) (Homo sapiens, UniProt P09874); test: fluorescence polarization competition binding
T3 construct: recombinant
T3 sequence (P09874 2-1014): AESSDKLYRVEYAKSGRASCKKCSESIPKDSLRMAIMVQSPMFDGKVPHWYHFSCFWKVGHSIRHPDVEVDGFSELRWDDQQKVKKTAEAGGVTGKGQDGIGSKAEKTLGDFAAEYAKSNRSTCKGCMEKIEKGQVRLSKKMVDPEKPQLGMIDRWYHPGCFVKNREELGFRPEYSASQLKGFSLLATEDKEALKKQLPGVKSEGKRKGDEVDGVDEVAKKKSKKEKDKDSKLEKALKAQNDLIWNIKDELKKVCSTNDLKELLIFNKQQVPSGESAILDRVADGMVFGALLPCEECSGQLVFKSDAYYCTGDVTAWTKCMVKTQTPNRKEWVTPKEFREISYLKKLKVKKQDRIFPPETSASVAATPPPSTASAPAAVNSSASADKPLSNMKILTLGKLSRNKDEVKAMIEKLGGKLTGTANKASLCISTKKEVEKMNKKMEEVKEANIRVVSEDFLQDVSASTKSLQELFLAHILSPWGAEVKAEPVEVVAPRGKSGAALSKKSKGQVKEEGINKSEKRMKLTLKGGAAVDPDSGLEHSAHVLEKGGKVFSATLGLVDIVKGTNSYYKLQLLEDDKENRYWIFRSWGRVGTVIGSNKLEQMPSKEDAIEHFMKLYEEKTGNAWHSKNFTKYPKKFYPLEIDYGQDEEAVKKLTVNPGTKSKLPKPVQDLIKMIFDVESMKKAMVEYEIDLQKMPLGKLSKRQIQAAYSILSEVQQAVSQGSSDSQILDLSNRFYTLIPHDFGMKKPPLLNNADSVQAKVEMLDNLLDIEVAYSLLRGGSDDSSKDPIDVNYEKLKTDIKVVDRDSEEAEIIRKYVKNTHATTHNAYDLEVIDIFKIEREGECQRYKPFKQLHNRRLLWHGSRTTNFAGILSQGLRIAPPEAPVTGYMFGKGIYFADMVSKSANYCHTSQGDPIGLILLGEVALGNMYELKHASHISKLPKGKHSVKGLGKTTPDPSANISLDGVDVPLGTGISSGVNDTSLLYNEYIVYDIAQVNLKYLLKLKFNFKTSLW

[2] = biological target: T1, GST-tagged PARP6 (recombinant); test: fluorescence polarization competition binding
Description: fluorescence polarization competition binding on GST-tagged PARP6 (recombinant) | IC50 of PARPYnD for PARP6 as determined by the in vitro binding assay

Compound | competition of PARPYnD photoaffinity labeling, in-gel fluorescence and immunoblo [1] | IC50 (PARP2 (recombinant)) [nM] | IC50 (PARP1 (recombinant)) [nM] | IC50 [2] [nM]
C[C@H]1Cn2c(nnc2C(C)(F)F)CN1C(=O)c1cccc(C(F)(F)c2n[nH]c(=O)c3ccccc23)c1 [AZ0108] | which was depleted by PARP6 inhibitor AZ0108 | – | – | –
C#CCCC1(CCC(=O)Nc2cnc(N3CCN(C(=O)c4cccc(Cc5n[nH]c(=O)c6ccccc56)c4)CC3)c(C#N)c2)N=N1 [PARPYnD] | – | 6 | 38 | 230
